This is an account of results in PMC7413516, “Antidepressant-like activity and safety profile evaluation of 1H-imidazo[2,1-f]purine-2,4(3H,8H)-dione derivatives as 5-HT1A receptor partial agonists” (PLoS ONE, 2020).

The data set can be described thus: Plasma glucose, triglyceride and cholesterol levels after repeated administration. It is filed as in vivo, Swiss albino mice. Conditions: mice, AZ-853 0.625, AZ-861 1.25 mg/kg b.w./day. The method, then:
The Swiss albino mice were used in the experiment. AZ-853 and AZ-861 were injected once daily for 16 consecutive days. On the 1st and 15th day the administration of the compounds, 18-h spontaneous animal activity was registered (see below). FST, as described earlier, was performed on the 14th day just before the next treatment. To ensure that the effects observed in FST are not the result of increased motility of animals, on the 13th day, just before the next administration, the locomotor activity was measured as described earlier, from 2 to 6 min after test start, i.e. in the period identical to the duration of FST. Blood and organ collection was performed on the 17th day at 24 h after the last dose and fasting.
Blood samples were collected from the Swiss albino mice 24 h after the last administration of the tested compounds or vehicle. To determine glucose, cholesterol and triglyceride levels in the plasma, standard enzymatic spectrophotometric tests (Biomaxima S.A. Lublin, Poland) were used. In the presence of appropriate enzyme, the substrate was converted to a colored compound. Absorbance was measured at a wavelength of 500 nm. To determine alanine aminotransferase (ALAT) or γ-glutamyl transpeptidase (γ-GTP) activities in the plasma, the standard enzymatic spectrophotometric test (Biomaxima S.A.) was used. Absorbance was measured at 340 nm (ALAT) or 405 nm (γ-GTP).

Consider `Cn1c(=O)c2c(nc3n(CCCCN4CCN(c5cccc(C(F)(F)F)c5)CC4)ccn23)n(C)c1=O` [AZ-861, 1,3-dimethyl-8-(4-(4-(3-(trifluoromethyl)phenyl)piperazin-1-yl)butyl)-1H-imidazo[2,1-f]purine-2,4(3H,8H)-dione], for which the “plasma glucose level vs. control” value was “did not influence the plasma glucose level”, the “plasma level of total cholesterol vs. control” value was “increased significantly” and the “plasma level of triglycerides vs. control” value is recorded as “increased significantly”.

As to `Cn1c(=O)c2c(nc3n(CCCCN4CCN(c5ccccc5F)CC4)ccn23)n(C)c1=O` [AZ-853, 8-(4-(4-(2-fluorophenyl)piperazin-1-yl)butyl)-1,3-dimethyl-1H-imidazo[2,1-f]purine-2,4(3H,8H)-dione], the “plasma glucose level vs. control” value is on record as “did not influence the plasma glucose level”, the “plasma level of total cholesterol vs. control” value is “increased significantly” and the “plasma level of triglycerides vs. control” value is “increased significantly”.
